Test results reported in the supplement of paper PMC10307832.

How the values were obtained:
Test in all cases: relative viability (nuclei count vs DMSO), 5 days (fraction); higher = more cells survive
[1] = compound: CCCCCCCCCCCC1=C(O)C(=O)C=C(O)C1=O [Embelin]
Summary of the method: (§1)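 Acceptance criteria were a control CV below 25% and at least one doubling per plate. Lung cancer cell lines in 1536-well plates got five library-drug doses (not always all listed) √10 apart by pinning and were left 5 days with no medium change. Viability divides treated-well nuclei by vehicle-well nuclei and is the median across plates. Nuclei were counted by MetaXpress from 4× Hoechst images.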

[2] = compound: CC(C)S(=O)(=O)C1=CC=CC=C1NC2=NC(=NC(=C2Cl)N)NC3=C(C=C(C=C3)N4CCC(CC4)C(=O)N)OC [HG-5-88-01]
Summary of the method: as §1

[3] = compound: CC(C)Oc1cc(Nc2nc(N[C@@H](C)c3ccc(F)cn3)ncc2Cl)n[nH]1 [AZ23]
Summary of the method: as §1

[4] = compound: C[C@@H]1CN(CC(=O)Nc2ccc3c(c2)Cc2cccc(-c4cc(=O)cc(N5CCOCC5)o4)c2S3)C[C@H](C)O1
Summary of the method: as §1

[5] = compound: Clc1ccc(Nc2nnc(Cc3ccncc3)c3ccccc23)cc1 [Vatalanib]
Summary of the method: as §1

Row | Cell Line | relative viability ([1]; 0.08 µM) | relative viability ([1]; 0.8 µM) | relative viability ([1]; 2.53 µM) | relative viability ([1]; 8 µM) | relative viability ([2]; 0.04 µM) | relative viability ([2]; 0.1265 µM) | relative viability ([2]; 0.4 µM) | relative viability ([2]; 1.265 µM) | relative viability ([2]; 4 µM) | relative viability ([3]; 0.01 µM) | relative viability ([3]; 0.03162 µM) | relative viability ([3]; 0.3162 µM) | relative viability ([4]; 0.04 µM) | relative viability ([4]; 0.1265 µM) | relative viability ([4]; 0.4 µM) | relative viability ([4]; 4 µM) | relative viability ([5]; 0.04 µM) | relative viability ([5]; 0.1265 µM) | relative viability ([5]; 0.4 µM) | relative viability ([5]; 1.265 µM) | relative viability ([5]; 4 µM)
1 | NCI-H2085 | 0.985 | 1.05 | 1.07 | 0.992 | 1.05 | 1.07 | 1.02 | 0.972 | 1.01 | 1.11 | 1.05 | 0.961 | 0.957 | 1.02 | 0.977 | 0.834 | 0.997 | 0.953 | 0.975 | 0.92 | 0.931
2 | NCI-H2087 | 1.01 | 1.22 | 1.27 | 1.05 | 1.16 | 0.989 | 0.916 | 1.07 | 0.746 | 1.24 | 1.21 | 0.963 | 1.15 | 0.912 | 1.1 | 0.948 | 1.18 | 0.928 | 1.08 | 0.889 | 1.09
3 | NCI-H2126 | 1.03 | 0.991 | 1.03 | 0.934 | 0.905 | 0.989 | 0.923 | 0.904 | 0.88 | 1.05 | 1.02 | 0.991 | 1.01 | 0.979 | 1 | 0.909 | 0.983 | 1 | 1.03 | 0.945 | 0.925
4 | NCI-H2170 | 0.981 | 1.01 | 1.09 | 0.919 | 0.977 | 1.02 | 0.899 | 0.706 | 1.01 | 1.07 | 0.977 | 1.2 | 0.989 | 0.997 | 0.985 | 0.888 | 1.03 | 0.979 | 0.997 | 0.987 | 0.944
5 | NCI-H2228 | 1 | 0.946 | 1.08 | 1.02 | 0.725 | 0.588 | 0.371 | 0.3 | 0.345 | 1.16 | 1.1 | 0.868 | 0.941 | 0.937 | 0.909 | 0.625 | 0.988 | 0.902 | 1.15 | 1.09 | 0.975
6 | NCI-H2342 | 0.894 | 1.02 | 1.15 | 0.898 | 0.759 | 1.1 | 0.93 | 0.728 | 1.05 | 0.993 | 0.942 | 1.02 | 1.01 | 0.847 | 0.83 | 0.786 | 1 | 0.913 | 0.97 | 1.03 | 0.975
7 | NCI-H2347 | 0.987 | 1.09 | 1.09 | 1.03 | 1.04 | 1.02 | 1.07 | 0.94 | 1.01 | 1.12 | 1.16 | 0.997 | 1.1 | 1.08 | 1.08 | 0.981 | 1.09 | 1.01 | 1.02 | 0.961 | 0.938
8 | NCI-H2405 | 1.09 | 1.09 | 0.993 | 0.921 | 1.03 | 1 | 0.925 | 0.802 | 0.901 | 0.982 | 1.09 | 0.911 | 1.09 | 1.05 | 0.972 | 0.983 | 1.01 | 0.919 | 0.732 | 0.919 | 0.946
